pIC50: −log10 of the molar value. ≈ marks a conversion by molar mass, not a printed value. Where “and” joins values, the source holds several entries; their conditions need not be identical. Equal values may be shown once.
Columns and labels:
LOX IMVI, melanoma = assay: In vitro multidrug resistance modulation (DINIB synergy): LOX IMVI; format: cell-based, human; conditions: increase of cytotoxicity of DINIB 1 × 10^−4 M; modulator μg/mL: verapamil 12.5, cyclosporin A 6.3, pervilleine B 12.5, C 3.1, D 50.0, F 25.0; <25 insignificant, >100 strong synergy
Text: (§1) Alkaloids 5–7 and 9 were further evaluated for their efficacy as potential modulators of P-glycoprotein. This assay assessed the ability of these test compounds to increase the cytotoxicity of an agent of the MDR phenotype {4,9-dihydro-3-iso-butyl-2-methyl-1-(p-nitrophenacyl)-4,9-dioxo-1H-naphth[2-3-d]imidazolium bromide (DINIB)}, compared with an agent not of the MDR phenotype (5-flurouracil), used as a negative control (73, 74).
(§2) In vitro multidrug resistance assay.

BC1, breast cancer = assay: In vitro cytotoxicity, human tumor panel: BC1; format: cell-based; conditions: Homo sapiens, read-out: ED50 BCI
Experimental: (§3) Cytotoxicity assay. Compounds 1–9 were evaluated for cytotoxic activity against a panel of human cancer cell lines, including KB-V1 in the presence and absence of VLB, according to an established protocol (68).

CAKI-1, renal = assay: In vitro multidrug resistance modulation (DINIB synergy): CAKI-1; format: cell-based, human; conditions: increase of cytotoxicity of DINIB 1 × 10^−4 M; modulator μg/mL: verapamil 12.5, cyclosporin A 6.3, pervilleine B 12.5, C 3.1, D 50.0, F 25.0; <25 insignificant, >100 strong synergy
Text: as §1, §2

Col2, colon cancer = assay: In vitro cytotoxicity, human tumor panel: Col2; format: cell-based; conditions: Homo sapiens, read-out: ED50 Col2
Experimental: as §3

HCT-15, colon = assay: In vitro multidrug resistance modulation (DINIB synergy): HCT-15; format: cell-based, human; conditions: increase of cytotoxicity of DINIB 1 × 10^−4 M; modulator μg/mL: verapamil 12.5, cyclosporin A 6.3, pervilleine B 12.5, C 3.1, D 50.0, F 25.0; <25 insignificant, >100 strong synergy
Text: as §1, §2

Lu1, lung cancer = assay: In vitro cytotoxicity, human tumor panel: Lu1; format: cell-based; conditions: Homo sapiens, read-out: ED50 Lu1
Experimental: as §3

[1] = test system: SW626, human ovarian adenocarcinoma; assay: In vitro cytotoxicity, human tumor panel: SW626; format: cell-based; conditions: SW626, read-out: ED50 SW626
Experimental: as §3

[2] = test system: KB, oral epidermoid carcinoma; assay: In vitro cytotoxicity, human tumor panel: KB; format: cell-based; conditions: Homo sapiens, read-out: ED50 KB
Experimental: as §3

UO-31, renal = assay: In vitro multidrug resistance modulation (DINIB synergy): UO-31; format: cell-based, human; conditions: increase of cytotoxicity of DINIB 1 × 10^−4 M; modulator μg/mL: verapamil 12.5, cyclosporin A 6.3, pervilleine B 12.5, C 3.1, D 50.0, F 25.0; <25 insignificant, >100 strong synergy
Text: as §1, §2

[3] = test system: LNCaP, hormone-dependent prostate cancer; assay: In vitro cytotoxicity, human tumor panel: LNCaP; format: cell-based; conditions: Homo sapiens, LNCaP, read-out: ED50 LNCaP
Experimental: as §3

KB-V1, drug resistant KB = assay: In vitro cytotoxicity, human tumor panel: KB-V1 with or without vinblastine; format: cell-based; conditions: for IC50: Homo sapiens, KB-V1, drug-resistant KB assessed in the absence of vinblastine, read-out: ED50 KB-V1−; for ED50 KB-V1+: drug resistant KB assessed in presence of vinblastine (1 μg/mL)
Experimental: as §3

CEM/VLB100 cells = assay: MDR reversal in drug-resistant human leukemia CEM/VLB100 cells; format: cell-based; conditions: Homo sapiens; CEM/VLB100 cells; read-out: IC50 value of the cytotoxic drug in the absence of modulator
Experimental: Cytotoxic potential. The cytotoxic potential of test substances with KB-3, KB-V1 and KB-8-5 cells was determined as described previously (24). Briefly, various concentrations of test compounds (dissolved in 10 μl of 10% DMSO) were transferred to 96-well plates, and 190 μl aliquots of cell suspensions (5×10^4 cells/ml) were added to each well. The plates then were incubated for 72 hours at 37° C. (100% humidity with a 5% CO2 atmosphere in air), and 100 μl of cold 20% aqueous trichloroacetic acid were added to the growth medium in each well to fix the cells. The cultures were incubated at 4° C. for 30 minutes, washed, air-dried, stained with sulforhodamine B solution, and washed with 1% acetic acid. […] In each case, a zero-day control was performed by adding an equivalent number of cells to several wells and incubating at 37° C. for 30 minutes, and processing as described above. Optical density values obtained with the zero-day control were subtracted, and cell survival, relative to control (solvent-treated) cultures, was calculated. The cytotoxic potential of the compounds with CEM and CEM/VLB100 cells was determined as described by Beck et al. (30). Cells were grown in 24-well plates at a density of 5–6×10^5 cells/ml. At 48 hours, the cell number was determined using a Coulter Counter, with a channelizer to distinguish cells from debris.

KB-V1 cells [4] = conditions: growth inhibitory effect of vinblastine; cited from earlier work
KB-3 cells = assay: Growth inhibitory potential (sulforhodamine B cell survival assay): KB-3; format: cell-based; conditions: Homo sapiens, KB3; 72 hours; read-out: IC50 KB-3
Experimental: One part of a natural product drug discovery program involves monitoring the potential of plant extracts to reverse multiple drug resistance. […] To investigate the potential of plant extracts or compounds to reverse multidrug-resistance, KB-V1 cells are treated with different concentrations of plant extracts or compounds in the presence (1 μg/ml) or absence of vinblastine.
Cytotoxic potential. The cytotoxic potential of test substances with KB-3, KB-V1 and KB-8-5 cells was determined as described previously (24). Briefly, various concentrations of test compounds (dissolved in 10 μl of 10% DMSO) were transferred to 96-well plates, and 190 μl aliquots of cell suspensions (5×10^4 cells/ml) were added to each well. The plates then were incubated for 72 hours at 37° C. (100% humidity with a 5% CO2 atmosphere in air), and 100 μl of cold 20% aqueous trichloroacetic acid were added to the growth medium in each well to fix the cells. The cultures were incubated at 4° C. for 30 minutes, washed, air-dried, stained with sulforhodamine B solution, and washed with 1% acetic acid. Finally, 200 μl of 10 mM Tris base were added to each well and the optical densities were determined at 515 nm utilizing an ELISA plate reader. In each case, a zero-day control was performed by adding an equivalent number of cells to several wells and incubating at 37° C. for 30 minutes, and processing as described above. Optical density values obtained with the zero-day control were subtracted, and cell survival, relative to control (solvent-treated) cultures, was calculated. The cytotoxic potential of the compounds with CEM and CEM/VLB100 cells was determined as described by Beck et al. (30). Cells were grown in 24-well plates at a density of 5–6×10^5 cells/ml. At 48 hours, the cell number was determined using a Coulter Counter, with a channelizer to distinguish cells from debris.

KB-8-5 cells = assay: In vivo hollow fiber test: KB-8-5; design: species or system NCr nu/nu mice; conditions: vinblastine 100 μg/kg; reversing agents 0.136 mmol/kg
Experimental: (§4) In vivo hollow fiber test. […] Confluent monolayers of KB-3, KB-V1 or KB-8-5 cells were harvested, collected by centrifugation and resuspended in conditioned medium at a concentration of 7.5×10^5 cells/ml.
(§5) Test compounds were administrated once daily by intraperitoneal injection from day 3–6 after implantation. Body weights were measure daily.
(§6) After incubating at 37° C. for 4 hours, the culture medium was aspirated and the samples were washed twice with normal saline containing 2.5% protamine sulfate solution by overnight incubation at 4° C. […] The formazan was extracted from each sample with DMSO (250 μl/well) for 4 hours at room temperature on a rotation platform.

KB-V1 cells [5] = assay: In vivo hollow fiber test: KB-V1; design: species or system NCr nu/nu mice
Experimental: as §4, §5, §6

COc1cc(C=CC(=O)O[C@@H]2C[C@@H]3[C@@H](OC(=O)C=Cc4cc(OC)c(OC)c(OC)c4)[C@@H](O)[C@H](C2)N3C)cc(OC)c1OC [Compound 7, 3α,6β-di-(3,4,5-trimethoxycinnamoyloxy)-7β-hydroxytropane]
synergy value at a 95% confidence level, LOX IMVI (LOX IMVI, melanoma): 13.2
IC50 (BC1, breast cancer): 15 µg/mL (≈ 24.4 µM)
synergy value at a 95% confidence level, CAKI-1 (CAKI-1, renal): 387.9
IC50 (Col2, colon cancer): 4.9 µg/mL (≈ 7.98 µM)
melting point: 59 to 61 °C
synergy value at a 95% confidence level, HCT-15 (HCT-15, colon): 758.3
IC50 (Lu1, lung cancer): 15.1 µg/mL (≈ 24.6 µM)
IC50 [1]: 6.5 µg/mL (≈ 10.6 µM)
IC50 [2]: 11 µg/mL (≈ 17.9 µM)
synergy value at a 95% confidence level, UO-31 (UO-31, renal): 562.7
IC50 [3]: 14.1 µg/mL (≈ 23 µM)
IC50 (KB-V1, drug resistant KB): 9 µg/mL (≈ 14.7 µM)
ED50 KB-V1+ (KB-V1, drug resistant KB): 0.2 µg/mL

COc1cc(C=CC(=O)O[C@H]2C[C@@H]3C[C@H](OC(=O)Cc4ccccc4)C[C@H]2N3C)cc(OC)c1OC [Compound 9, 3α-phenylacetoxy-6β-(3,4,5-trimethoxycinnamoyloxy)-tropane]
synergy value at a 95% confidence level, LOX IMVI (LOX IMVI, melanoma): 59.2
IC50 (BC1, breast cancer): > 20 µg/mL
synergy value at a 95% confidence level, CAKI-1 (CAKI-1, renal): 342.1
IC50 (Col2, colon cancer): 4.9 µg/mL (≈ 9.89 µM)
melting point: 59 to 61 °C
synergy value at a 95% confidence level, HCT-15 (HCT-15, colon): 714.7
IC50 (Lu1, lung cancer): > 20 µg/mL
IC50 [1]: > 20 µg/mL
IC50 [2]: > 20 µg/mL
synergy value at a 95% confidence level, UO-31 (UO-31, renal): 364.4
IC50 [3]: > 20 µg/mL
IC50 (KB-V1, drug resistant KB): > 20 µg/mL
ED50 KB-V1+ (KB-V1, drug resistant KB): 0.2 µg/mL

CC[C@]1(O)C[C@@H]2CN(CCc3c([nH]c4ccccc34)[C@@](C(=O)OC)(c3cc4c(cc3OC)N(C)[C@H]3[C@@](O)(C(=O)OC)[C@H](OC(C)=O)[C@]5(CC)C=CCN6CC[C@]43[C@@H]65)C2)C1 [vinblastine, reference compound]
pIC50 (CEM/VLB100 cells): 5.30
resistance of KB-V1 cells relative to parental KB-3 cells (KB-V1 cells [4]): > 200 fold
pIC50 (KB-3 cells): 7.40
Growth inhibition, single agent, KB-8-5, s.c. site (KB-8-5 cells): 2.3%
growth inhibition, administered as single agents (KB-V1 cells [5]; KB-V1 or KB-8-5 cells in hollow fibers implanted into NCr nu/nu mice): not significantly inhibited
Observed inhibition from coadministration with vinblastine, KB-V1, i.p. site (KB-V1 cells [5]; vinblastine 250 μg/kg + reversing agent 0.136 mmol/kg, i.p. injection once daily days 3–6): 60.3%
Growth inhibition, single agent, KB-V1, s.c. site (KB-V1 cells [5]; vinblastine 250 μg/kg, reversing agents 0.136 mmol/kg, i.p. injection once daily days 3–6): 3.8% and 0%
